Results on 34 compounds are retold here after patent publication US8410112B2, “Compounds useful as inhibitors of ATR kinase” (Vertex Pharmaceuticals Incorporated, priority 2008, dated 2013).

SMILES strings stand for the structures.

For this assay, the target named is T1, full-length ATR (Homo sapiens, UniProt Q13535).
T1 construct: in the presence of 5 nM full-length ATR
T1 sequence (Q13535 whole entry): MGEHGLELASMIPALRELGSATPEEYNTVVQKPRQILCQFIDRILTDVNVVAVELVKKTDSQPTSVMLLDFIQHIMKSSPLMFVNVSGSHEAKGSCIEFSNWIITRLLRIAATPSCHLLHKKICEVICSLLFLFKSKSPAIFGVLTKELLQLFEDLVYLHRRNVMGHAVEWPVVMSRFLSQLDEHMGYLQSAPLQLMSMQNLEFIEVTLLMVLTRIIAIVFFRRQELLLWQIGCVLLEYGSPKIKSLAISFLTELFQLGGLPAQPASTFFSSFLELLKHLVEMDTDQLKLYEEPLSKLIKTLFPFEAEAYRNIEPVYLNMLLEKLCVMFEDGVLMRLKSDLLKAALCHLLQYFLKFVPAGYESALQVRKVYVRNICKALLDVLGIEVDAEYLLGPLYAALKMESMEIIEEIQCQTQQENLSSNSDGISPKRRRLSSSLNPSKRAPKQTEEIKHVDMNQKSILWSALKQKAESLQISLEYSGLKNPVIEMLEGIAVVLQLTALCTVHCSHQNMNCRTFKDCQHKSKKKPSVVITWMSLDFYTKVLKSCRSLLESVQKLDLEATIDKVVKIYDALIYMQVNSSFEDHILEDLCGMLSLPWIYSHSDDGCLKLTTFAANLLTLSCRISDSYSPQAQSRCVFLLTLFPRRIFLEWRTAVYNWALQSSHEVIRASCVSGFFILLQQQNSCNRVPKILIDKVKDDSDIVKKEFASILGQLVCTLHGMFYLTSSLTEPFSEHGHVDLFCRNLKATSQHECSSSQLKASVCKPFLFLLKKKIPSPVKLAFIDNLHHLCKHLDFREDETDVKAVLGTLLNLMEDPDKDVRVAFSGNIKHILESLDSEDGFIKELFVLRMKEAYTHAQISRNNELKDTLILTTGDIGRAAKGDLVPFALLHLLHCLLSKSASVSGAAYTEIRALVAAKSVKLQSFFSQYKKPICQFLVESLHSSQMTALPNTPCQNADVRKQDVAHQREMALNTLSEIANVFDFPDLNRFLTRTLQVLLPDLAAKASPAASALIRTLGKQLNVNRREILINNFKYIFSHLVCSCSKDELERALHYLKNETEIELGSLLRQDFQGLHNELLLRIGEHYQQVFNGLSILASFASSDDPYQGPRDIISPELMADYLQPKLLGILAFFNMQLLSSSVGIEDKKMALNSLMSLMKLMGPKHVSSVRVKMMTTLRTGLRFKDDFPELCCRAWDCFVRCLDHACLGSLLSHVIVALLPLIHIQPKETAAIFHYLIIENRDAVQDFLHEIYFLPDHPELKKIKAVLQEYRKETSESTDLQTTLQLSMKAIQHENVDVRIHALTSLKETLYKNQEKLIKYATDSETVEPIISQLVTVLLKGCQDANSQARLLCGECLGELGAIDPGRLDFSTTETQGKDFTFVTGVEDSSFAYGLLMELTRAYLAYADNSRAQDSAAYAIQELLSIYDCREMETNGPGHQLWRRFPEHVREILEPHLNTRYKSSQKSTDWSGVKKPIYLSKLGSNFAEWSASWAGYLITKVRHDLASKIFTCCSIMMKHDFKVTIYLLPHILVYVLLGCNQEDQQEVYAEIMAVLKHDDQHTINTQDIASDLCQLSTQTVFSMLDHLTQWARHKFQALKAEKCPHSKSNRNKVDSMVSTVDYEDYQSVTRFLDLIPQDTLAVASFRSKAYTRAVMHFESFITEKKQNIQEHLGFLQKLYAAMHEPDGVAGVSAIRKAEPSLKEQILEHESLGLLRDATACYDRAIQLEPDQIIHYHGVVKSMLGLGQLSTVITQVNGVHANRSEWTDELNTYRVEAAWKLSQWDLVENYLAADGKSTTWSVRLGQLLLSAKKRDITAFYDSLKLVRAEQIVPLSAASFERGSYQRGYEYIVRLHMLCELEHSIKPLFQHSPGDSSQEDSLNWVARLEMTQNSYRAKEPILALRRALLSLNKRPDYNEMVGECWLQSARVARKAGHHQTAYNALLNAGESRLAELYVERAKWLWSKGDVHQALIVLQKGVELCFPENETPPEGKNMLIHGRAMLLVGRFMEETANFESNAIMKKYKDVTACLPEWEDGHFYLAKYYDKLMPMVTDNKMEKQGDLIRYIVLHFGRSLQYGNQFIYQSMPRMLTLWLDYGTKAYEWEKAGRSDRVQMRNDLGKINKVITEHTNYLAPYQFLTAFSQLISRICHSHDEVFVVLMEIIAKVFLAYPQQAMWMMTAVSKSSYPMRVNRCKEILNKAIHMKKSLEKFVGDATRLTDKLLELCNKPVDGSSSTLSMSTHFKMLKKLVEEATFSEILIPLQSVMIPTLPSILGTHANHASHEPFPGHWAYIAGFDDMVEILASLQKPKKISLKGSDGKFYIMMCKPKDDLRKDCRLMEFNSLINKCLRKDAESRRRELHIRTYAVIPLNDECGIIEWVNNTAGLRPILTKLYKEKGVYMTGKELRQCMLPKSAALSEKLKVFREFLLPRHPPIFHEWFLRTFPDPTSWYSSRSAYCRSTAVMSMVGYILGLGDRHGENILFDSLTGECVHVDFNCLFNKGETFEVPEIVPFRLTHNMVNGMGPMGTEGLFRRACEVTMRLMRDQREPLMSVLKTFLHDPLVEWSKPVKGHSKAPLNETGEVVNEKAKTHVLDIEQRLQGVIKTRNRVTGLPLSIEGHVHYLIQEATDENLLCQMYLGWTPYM
Briefly: ATR Inhibition Assay (radioactive-phosphate incorporation). Type of assay: biochemical. To be noted: Ki(app); 5 nM full-length ATR, 10 μM ATP, 800 μM target peptide, 25° C. The procedure, abridged:
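After a 10-min pre-incubation of compound with 5 nM enzyme at 25 °C, ATP was added to start the reaction (final 10 μM [γ-33P]ATP, 800 μM peptide; Tris/HCl pH 7.5, MgCl2, DTT), which ran 24 h. Incorporated 33P was captured on phosphocellulose filters, and Ki(app) was fitted by non-linear regression.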
`Nc1ncc(N2CCNCC2)nc1-c1nc2ccccc2[nH]1` [Compound I-40, 3-(1H-benzo[d]imidazol-2-yl)-5-(piperazin-1-yl)pyrazin-2-amine]: the Ki lay in the range of 1 to 10 µM.

As for `CCS(=O)(=O)N1C2CCC1CN(c1cnc(N)c(-c3nnc(-c4ccc(CNC)cc4)o3)n1)C2` [Compound I-341, 5-(8-Ethylsulfonyl-3,8-diazabicyclo[3.2.1]octan-3-yl)-3-[5-[4-(methylaminomethyl)phenyl]-1,3,4-oxadiazol-2-yl]pyrazin-2-amine], the Ki was 0.1 to 1 µM. For the compound `Cc1ccc2nc(-c3nc(N4CCNC(=O)CC4)cnc3N)[nH]c2c1` [Compound I-65, 1-(5-amino-6-(6-methyl-1H-benzo[d]imidazol-2-yl)pyrazin-2-yl)-1,4-diazepan-5-one], the Ki is 1 to 10 µM. The result for `CCC(=O)N1CCN(c2cnc(N)c(-c3nnc(-c4ccc(CNC)cc4)o3)n2)CC1(C)C` [Compound I-329, 1-[4-[5-Amino-6-[5-[4-(methylaminomethyl)phenyl]-1,3,4-oxadiazol-2-yl]pyrazin-2-yl]-2,2-dimethyl-piperazin-1-yl]propan-1-one] reads 1 to 10 µM; that for `CCS(=O)(=O)N1CC=C(c2cnc(N)c(-c3nc4ccccc4[nH]3)n2)CC1` [Compound I-71, 3-(1H-benzo[d]imidazol-2-yl)-5-(1-(ethylsulfonyl)-1,2,3,6-tetrahydropyridin-4-yl)pyrazin-2-amine], less than 0.1 µM; that for `Nc1ncc(N2CCN(C(=O)c3cccnc3)CC2)nc1C(=O)Nc1ccccn1` [Compound I-146, 3-amino-N-(pyridin-2-yl)-6-(4-(pyridine-3-carbonyl)piperazin-1-yl)pyrazine-2-carboxamide], 1 to 10 µM. Regarding `Cc1ccc2nc(-c3nc(N4CCN(c5ccccn5)CC4)cnc3N)[nH]c2c1` [Compound I-64, 3-(6-methyl-1H-benzo[d]imidazol-2-yl)-5-(4-(pyridin-2-yl)piperazin-1-yl)pyrazin-2-amine], the Ki was in the range of 1 to 10 µM. Then `CN(C)S(=O)(=O)N1CCN(c2cnc(N)c(-c3nc4ccccc4[nH]3)n2)CC1` [Compound I-88, 4-(5-amino-6-(1H-benzo[d]imidazol-2-yl)pyrazin-2-yl)-N,N-dimethylpiperazine-1-sulfonamide], with 0.1 to 1 µM. `CNCc1ccc(-c2nnc(-c3nc(N4C[C@@H]5C(C(=O)N(C)C)[C@@H]5C4)cnc3N)o2)cc1` (stereo partly drawn) [Compound I-351, (1R,5S)-3-[5-Amino-6-[5-[4-(methylaminomethyl)phenyl]-1,3,4-oxadiazol-2-yl]pyrazin-2-yl]-N,N-dimethyl-3-azabicyclo[3.1.0]hexane-6-carboxamide]: the Ki is 0.1 to 1 µM.

As for `Nc1ncc(N2CCN(S(=O)(=O)c3ccccc3)CC2)nc1C(=O)Nc1ccccn1` [Compound I-207, 3-amino-6-(4-(phenylsulfonyl)piperazin-1-yl)-N-(pyridin-2-yl)pyrazine-2-carboxamide], the Ki lay in the range of 0.1 to 1 µM.

`CCNC(=O)C1[C@H]2CN(c3cnc(N)c(-c4nnc(-c5ccc(CNC)cc5)o4)n3)C[C@@H]12` (stereo partly drawn) [Compound I-350, (1R,5S)-3-[5-Amino-6-[5-[4-(methylaminomethyl)phenyl]-1,3,4-oxadiazol-2-yl]pyrazin-2-yl]-N-ethyl-3-azabicyclo[3.1.0]hexane-6-carboxamide]: the Ki fell in the range of 0.1 to 1 µM. Take `CCS(=O)(=O)N1CC=C(c2cnc(N)c(C(=O)Nc3cc(C)ccn3)n2)CC1` [Compound I-167, 3-amino-6-(1-(ethylsulfonyl)-1,2,3,6-tetrahydropyridin-4-yl)-N-(4-methylpyridin-2-yl)pyrazine-2-carboxamide]: the Ki is less than 0.1 µM. With `CCS(=O)(=O)N1CCC2(CCN(c3cnc(N)c(-c4nnc(-c5ccc(CNC)cc5)o4)n3)C2)C1` (stereo not shown) [Compound I-330, 5-(3-Ethylsulfonyl-3,7-diazaspiro[4.4]nonan-7-yl)-3-[5-[4-(methylaminomethyl)phenyl]-1,3,4-oxadiazol-2-yl]pyrazin-2-amine], the Ki is 1 to 10 µM. With `Cc1ccc2nc(-c3nc(C4=CCC5(CC4)OCCO5)cnc3N)[nH]c2c1` [Compound I-22, 3-(6-methyl-1H-benzo[d]imidazol-2-yl)-5-(1,4-dioxaspiro[4.5]dec-7-en-8-yl)pyrazin-2-amine], the Ki was 0.1 to 1 µM.

`Nc1ncc(C2=CCN(C(=O)OCc3ccccc3)CC2)nc1-c1nnc(-c2ccccc2)o1` [Compound I-257, benzyl 4-(5-amino-6-(5-phenyl-1,3,4-oxadiazol-2-yl)pyrazin-2-yl)-5,6-dihydropyridine-1(2H)-carboxylate]: the Ki lay in the range of 0.1 to 1 µM. In the case of `CNCCC(=O)N1CC=C(c2cnc(N)c(-c3nc4ccccc4[nH]3)n2)CC1` [Compound I-346, 1-(4-(5-Amino-6-(1H-benzo[d]imidazol-2-yl)pyrazin-2-yl)-5,6-dihydropyridin-1(2H)-yl)-3-(methylamino)propan-1-one], the Ki was in the range of 0.1 to 1 µM. For `CN(C)S(=O)(=O)N1CC=C(c2cnc(N)c(-c3nnc(-c4ccccc4)o3)n2)CC1` [Compound I-84, 4-(5-amino-6-(5-phenyl-1,3,4-oxadiazol-2-yl)pyrazin-2-yl)-N,N-dimethyl-5,6-dihydropyridine-1(2H)-sulfonamide], the Ki is less than 0.1 µM. Take `CS(=O)(=O)CCN1CCN(c2cnc(N)c(-c3nnc(-c4ccccc4)o3)n2)CC1` [Compound I-296, 5-[4-(2-methylsulfonylethyl)piperazin-1-yl]-3-(5-phenyl-1,3,4-oxadiazol-2-yl)pyrazin-2-amine]: the Ki fell in the range of 0.1 to 1 µM. Then `CNCc1ccc(-c2nnc(-c3nc(N4CCC5(C4)CN(S(=O)(=O)C(C)C)C5)cnc3N)o2)cc1` [Compound I-368, 5-(2-(Isopropylsulfonyl)-2,6-diazaspiro[3.4]octan-6-yl)-3-(5-(4-((methylamino)methyl)phenyl)-1,3,4-oxadiazol-2-yl)pyrazin-2-amine], with 0.1 to 1 µM. As to `CCOC(=O)N1CC=C(c2cnc(N)c(-c3nnc(-c4ccccc4)o3)n2)CC1` [Compound I-238, ethyl 4-(5-amino-6-(5-phenyl-1,3,4-oxadiazol-2-yl)pyrazin-2-yl)-5,6-dihydropyridine-1(2H)-carboxylate], the Ki was less than 0.1 µM. Then `CCCS(=O)(=O)N1CCN(c2cnc(N)c(-c3nc4ccccc4[nH]3)n2)CC1` [Compound I-95, 3-(1H-benzo[d]imidazol-2-yl)-5-(4-(propylsulfonyl)piperazin-1-yl)pyrazin-2-amine], with 0.1 to 1 µM; and `CC(=O)N1CC=C(c2cnc(N)c(-c3nnc(-c4ccccc4)o3)n2)CC1` [Compound I-125, 1-(4-(5-amino-6-(5-phenyl-1,3,4-oxadiazol-2-yl)pyrazin-2-yl)-5,6-dihydropyridin-1(2H)-yl)ethanone], with less than 0.1 µM; and `CCS(=O)(=O)N1CCN(c2cnc(N)c(-c3nnc(-c4ccco4)o3)n2)CC1` [Compound I-297, 5-(4-ethylsulfonylpiperazin-1-yl)-3-[5-(2-furyl)-1,3,4-oxadiazol-2-yl]pyrazin-2-amine], with 0.1 to 1 µM. For `COCC(=O)N1CCN(c2cnc(N)c(-c3nnc(-c4ccccc4)o3)n2)CC1` [Compound I-179, 1-(4-(5-amino-6-(5-phenyl-1,3,4-oxadiazol-2-yl)pyrazin-2-yl)piperazin-1-yl)-2-methoxyethanone], the Ki fell in the range of 0.1 to 1 µM. Then `COCCOCC(=O)N1CCN(c2cnc(N)c(-c3nc4ccccc4[nH]3)n2)CC1` [Compound I-264, 1-(4-(5-amino-6-(1H-benzo[d]imidazol-2-yl)pyrazin-2-yl)piperazin-1-yl)-2-(2-methoxyethoxy)ethanone], with 1 to 10 µM; and `CN(C)C(=O)N1CCN(c2cnc(N)c(C(=O)Nc3ccccn3)n2)CC1` [Compound I-229, 3-amino-6-(4-(dimethylcarbamoyl)piperazin-1-yl)-N-(pyridin-2-yl)pyrazine-2-carboxamide], with 0.1 to 1 µM; and `Nc1ncc(N2CC=C(c3nccs3)CC2)nc1-c1nnc(-c2ccccc2)o1` [Compound I-290, 3-(5-phenyl-1,3,4-oxadiazol-2-yl)-5-(4-thiazol-2-yl-3,6-dihydro-2H-pyridin-1-yl)pyrazin-2-amine], with 0.1 to 1 µM. For the compound `Nc1ncc(N2CCN(Cc3ccccc3)CC2)nc1-c1nnc(-c2ccccc2)o1` [Compound I-300, 5-(4-benzylpiperazin-1-yl)-3-(5-phenyl-1,3,4-oxadiazol-2-yl)pyrazin-2-amine], the Ki was in the range of 1 to 10 µM. With `CCS(=O)(=O)N1CCN(c2cnc(N)c(-c3nnc(C4CCCCC4)o3)n2)CC1` [Compound I-72, 3-(5-cyclohexyl-1,3,4-oxadiazol-2-yl)-5-(4-(ethylsulfonyl)piperazin-1-yl)pyrazin-2-amine], the Ki was 1 to 10 µM.

As to `Cc1ccc2nc(-c3nc(N4CCNC(=O)C4)cnc3N)[nH]c2c1` [Compound I-7, 4-(5-amino-6-(6-methyl-1H-benzo[d]imidazol-2-yl)pyrazin-2-yl)piperazin-2-one], the Ki lay within 0.1 to 1 µM. Then `CCNCc1ccc(-c2nnc(-c3nc(N4CCCC4)cnc3N)o2)cc1` [Compound I-343, 3-[5-[4-(Aethylaminomethyl)phenyl]-1,3,4-oxadiazol-2-yl]-5-pyrrolidin-1-yl-pyrazin-2-amine], with less than 0.1 µM; and `CNCc1ccc(-c2nnc(-c3nc(C4CC4C(=O)N(C)CCOC)cnc3N)o2)cc1` (stereo not shown) [Compound I-377], with 1 to 10 µM; and `CC(=O)N[C@@H]1CCN(c2cnc(N)c(-c3nc4ccc(C)cc4[nH]3)n2)C1` [Compound I-9, (R)-N-(1-(5-amino-6-(6-methyl-1H-benzo[d]imidazol-2-yl)pyrazin-2-yl)pyrrolidin-3-yl)ethanamide], with 1 to 10 µM.

Take `CCS(=O)(=O)N1CCN(c2cnc(N)c(-c3nnc(-c4ccc(CNC)cc4)o3)n2)CC1` [Compound I-325, 5-(4-Ethylsulfonylpiperazin-1-yl)-3-[5-[4-(methylaminomethyl)phenyl]-1,3,4-oxadiazol-2-yl]pyrazin-2-amine]: the Ki was less than 0.1 µM.
